Here are results for 4 compounds from patent USRE41149E1, “Optically active pyridonecarboxylic acid derivatives” (Daiichi Sankyo Company, Limited, priority 1988, dated 2010).

In series [1] the test system is Ps. aeruginosa, 32121. The series is described as follows: Antimicrobial activity (MIC), standard method of Nippon Kagakuryoho Gakkai. In kind it is cell-based. The following applies: for MIC: Pseudomonas aeruginosa, 32121, Ps. aeruginosa. As to the method: (§1) Antimicrobial activity of the optically active compounds prepared in Examples was evaluated in accordance with the standard method specified by Nippon […], and results obtained are shown in Table 1 which precedes the claims herein in terms of minimum inhibitory concentration (MIC: […]).

The subject of series [2] is S. aureus, 209 P. Described as above. In kind it is cell-based. The conditions noted are these: for MIC: Staphylococcus aureus. As to the method: as §1
In series [3] the test system is Ps. aeruginosa, 32104. The series is described as above. The series is classed as cell-based. The following applies: for MIC: Pseudomonas aeruginosa, 32104, Ps. aeruginosa. How it is done: as §1
Series [4] deals with Str. faecalis, ATCC 19433. The series is described as above. The series is classed as cell-based. The following applies: for MIC: Enterococcus faecalis, ATCC19433, Str. faecalis. How it is done:
as §1

Series [5] deals with E. coli., NIHJ. Described as above. In kind it is cell-based. The following applies: for MIC: Escherichia coli. As to the method: as §1
Series [6] relates to Pr. vulgaris, 08601. Described as above. The following applies: for MIC: Proteus vulgaris. The series is classed as cell-based. As to the method:
as §1

The subject of series [7] is S. epidermidis, 56500. The series is described as above. The following applies: for MIC: Staphylococcus epidermidis, 56500, S. epidermidis. The series is classed as cell-based. How it is done: as §1
For series [8], the system named is Ser. marcescens, 10100. Described as above. The series is classed as cell-based. The conditions noted are these: for MIC: Serratia marcescens, 10100, Ser. marcescens. As to the method: as §1

Converted amounts (≈) assume the structure as drawn. Structures can show the parent of a compound that is named as a salt.

As a reminder, the melting point is the temperature of the solid-liquid transition. As to `Cc1c(N2CC[C@@H]([C@H](C)N)C2)c(F)cc2c(=O)c(C(=O)O)cn(C3CC3F)c12` (single isomer, unassigned; (-)) (as salt: hydrochloride) [Compound 54b], the melting point was in the range of 149 to 153 °C.

Broadly, the MIC is the smallest concentration in the dilution series that meets the test's criterion for growth inhibition. Read a low MIC as inhibition by little substance. For `C[C@H](N)[C@@H]1CCN(c2c(F)cc3c(=O)c(C(=O)O)cn(C4CC4F)c3c2Cl)C1` (single isomer, unassigned; (-)) [Compound 34b], the melting point lay in the range of 204 to 207 °C. In series [1], this compound yielded an MIC of under 0.1 µg/mL. This compound also registered an MIC in series [2] of under 0.1 µg/mL. This compound also returned a minimal inhibitory concentration (MIC) in series [3] of 0.1 µg/mL (≈ 0.243 µM). In addition, the MIC in [4] is under 0.1 µg/mL. In series [5], this compound gave an MIC of under 0.1 µg/mL. This compound returned an MIC in [6] of under 0.1 µg/mL. This compound also came in with an MIC in series [7] of under 0.1 µg/mL. The same compound yielded a minimum inhibitory concentration (MIC) in [8] of under 0.1 µg/mL.

As for `CC1(C)CN(c2c(F)cc3c(=O)c(C(=O)O)cn([C@@H]4C[C@@H]4F)c3c2Cl)CC1N` (single isomer, unassigned; (-)) [Compound 59b], the melting point is 118 to 121 °C. In series [1], the MIC was under 0.1 µg/mL. The MIC in series [2] was under 0.1 µg/mL. Moreover, in [3], the MIC is 0.2 µg/mL (≈ 0.486 µM). This compound gave an MIC in series [4] of 0.1 µg/mL (≈ 0.243 µM). In [5], the MIC is under 0.1 µg/mL. The MIC in series [6] was under 0.1 µg/mL. The compound also came in with an MIC in [7] of under 0.1 µg/mL. The compound also gave an MIC in [8] of under 0.1 µg/mL.

Regarding “(−)-7-[3-(S)-Amino-1-pyrrolidinyl]-8-chloro-6-fluoro-1-(1,2-cis-2-fluoro-1-cyclopropyl)-4-oxo-1,4-dihydroquinoline-3-carboxylic acid [Compound 13b]”, the “Antimicrobial activity (MIC)” value in series [1] (Ps. aeruginosa) was under 0.1 µg/mL; in series [2], under 0.1 µg/mL; in series [3] (Ps. aeruginosa), under 0.1 µg/mL; in series [4] (Str. faecalis), 0.20 µg/mL; in [5] it was under 0.1 µg/mL; in series [6], under 0.1 µg/mL. The “Antimicrobial activity (MIC)” value in series [7] (S. epidermidis) and in series [8] (Ser. marcescens) was under 0.1 µg/mL throughout.
